Assay results taken from patent US8058286B2, “Method for therapy of diarrhea-predominant irritable bowel disorders” (Toray Industries, Inc., priority 2005, dated 2011).
Structures can show the parent of a compound that is named as a salt.

Tested on: Rat Defecation Models Induced by Restraint Stress
Assay: Rat defecation models induced by restraint stress (number of feces within 60 minutes)
Type: in vivo
Source text: The fact that the morphinan derivatives having the nitrogen-containing cyclic substituent, represented by Formula (I) and the pharmaceutically acceptable acid addition salts thereof are effective for functional bowel disorders may be confirmed by showing inhibitory action against transportation ability of large intestine, which ability has been increased by applying restraint stress. The inhibitory action against the increased transportation ability of large intestine may be confirmed by a reported method (Miyata K et. al., J. Pharmacol. Exp. Ther., 261, 297-303, 1992. or Kobayashi S et. al., Jpn. J. Pharmacol., 86, 281-8, 2001.), but the method is not restricted thereto.
A solvent or the Compound 1 was subcutaneously administered, and 15 minutes later, application of restraint stress was started. The number of feces within 60 minutes from the beginning of the application of the stress was counted and the effect was evaluated (one group consisted of 6 rats). The rats in a control group to which the restraint stress was not applied were merely moved to a new plastic cage.
In the group to which 5 w/v % xylitol solution containing 0.1 w/v % citric acid used as the solvent alone was administered, the rats to which the restraint stress was not applied defecated 1.0 feces on average within the 60 minutes, while the rats to which the restraint stress was applied defecated 6.5 feces on average, so that increase in the number of feces caused by the stress was observed.
Compounds 10, 11, 12 and 13 were evaluated in the same manner as in Example 1. In the group to which 5 w/v % xylitol solution containing 0.1 w/v % citric acid used as the solvent alone was administered, the rats to which the restraint stress was applied defecated 7.5 feces on average within the 60 minutes. The number of feces was decreased to 0.3 on average when 0.3 mg/kg of Compound 10 was administered, decreased to 4.2 on average when 1 mg/kg of Compound 11 was administered, decreased to 3.7 on average when 0.3 mg/kg of Compound 12 was administered, and decreased to 4.1 on average when 10 mg/kg of Compound 13 was administered.

[1] = 0.3 mg/kg subcutaneous 15 minutes before restraint stress, solvent group with stress 7.5

Compound: O=C1c2ccccc2C(=O)N1[C@@H]1CC[C@@]2(O)[C@H]3Cc4ccc(O)c5c4[C@@]2(CCN3CC2CC2)[C@H]1O5 [Compound 1, N-(17-cyclopropylmethyl-4,5α-epoxy-3,14-dihydroxy-morphinan-6β-yl)-phthalimide]
- number of feces on average within 60 minutes from the beginning of restraint stress (0.15 mg/kg subcutaneous 15 minutes before restraint stress, solvent group with stress 6.5, without stress 1.0): 1.0
- activity to reduce the number of feces with respect to the solvent group (0.15 mg/kg subcutaneous, restraint stress, result in words): statistically significant activity to reduce the number of feces was observed

Compound: O=C1C2=C(CCCC2)C(=O)N1[C@@H]1CC[C@@]2(O)[C@H]3Cc4ccc(O)c5c4[C@@]2(CCN3CC2CC2)[C@H]1O5 [Compound 10, N-(17-cyclopropylmethyl-4,5α-epoxy-3,14-dihydroxy-morphinan-6β-yl)-3,4,5,6-tetrahydrophthalimide•tartaric Acid Salt]
- number of feces on average within 60 minutes from the beginning of restraint stress [1]: 0.3

Compound: O=C1c2cccc(F)c2CN1[C@@H]1CC[C@@]2(O)[C@H]3Cc4ccc(O)c5c4[C@@]2(CCN3CC2CC2)[C@H]1O5 [Compound 11, 2-(17-cyclopropylmethyl-4,5α-epoxy-3,14-dihydroxy-morphinan-6β-yl)-4-fluoro-2,3-dihydro-isoindole-1-one-methanesulfonic Acid Salt]
- number of feces on average within 60 minutes from the beginning of restraint stress (1 mg/kg subcutaneous 15 minutes before restraint stress, solvent group with stress 7.5): 4.2

Compound: O=C1c2ccccc2S(=O)(=O)N1[C@@H]1CC[C@@]2(O)[C@H]3Cc4ccc(O)c5c4[C@@]2(CCN3CC2CC2)[C@H]1O5 [Compound 12, N-(17-cyclopropylmethyl-4,5α-epoxy-3,14-dihydroxy-morphinan-6β-yl)-O-sulfonbenzimide•tartaric Acid Salt]
- number of feces on average within 60 minutes from the beginning of restraint stress [1]: 3.7

Compound: O=C1C=CC(=O)N1[C@@H]1CC[C@@]2(O)[C@H]3Cc4ccc(O)c5c4[C@@]2(CCN3CC2CC2)[C@H]1O5 [Compound 13, N-(17-cyclopropylmethyl-4,5α-epoxy-3,14-dihydroxy-morphinan-6β-yl)-maleimide•tartaric Acid Salt]
- number of feces on average within 60 minutes from the beginning of restraint stress (10 mg/kg subcutaneous 15 minutes before restraint stress, solvent group with stress 7.5): 4.1
